According to patent US20020168327A1, “Treatment of dandruff” (Unilever Home & Personal Care USA, Division of Conopco, Inc., priority 2001, published 2002):
Where “and” joins values, the source holds several entries; their conditions need not be identical. Equal entries are not always repeated.

Assays:
[1] = In vitro skin penetration study, Franz diffusion cells, radiolabelled shampoo; type: in vitro ADME, human; details: 6-fold diluted shampoo, one minute contact then washed off; 3H label; p<0.05
Method: Radiolabelled formulations were prepared using formulations spiked with either ^3H Lysine or ^3H glyceryl trioleate in sunflower seed oil. The total balance of each nutrient was brought up to 0.01% by weight using non-labelled cold material. Excised human full thickness skin was obtained and placed in between the two compartments of Franz diffusion cells. The skin is maintained by filling the receptor chamber of the cell with phosphate buffered saline with the cells placed in a water bath at 37° C. to maintain a surface skin tissue of about 32° C. […] The experimental procedure was as follows:
6-fold diluted shampoo was applied to the skin, left for one minute and washed off. The skin was then separated into 3:
remainder of the epidermis (viable) is then removed using heat separation (identified as the epidermal section)
Each of these layers was analysed for radioactivity and the amount of material penetrated calculated.
Using the in-vitro skin penetration studies, the amount of penetrated material can be quantified as a snap shot in time. From the skin sectioning process, the location of the penetrant at the particular point in time can be measured.

[2] = test system: ceramide levels in stratum corneum; assay: Ceramide production in skin: test products applied to the volar forearm for four weeks, stratum corneum tape stripping; type: in vivo, human; details: responder subset of subjects; 1.0% of each active in ethanol/propylene glycol; twice daily for four weeks on volar forearm
Method: Tests on the ability of compositions to increase ceramide production in skin were carried out. The formulation pairs tested were: 1.0% tetraacetyl phytosphingosine (TAPS) vs Vehicle 1.0% TAPS+1.0% juniperic acid+1.0% linoleic acid vs Vehicle. Vehicle=ethanol/propylene glycol (1:1) plus 0.2% by weight Glydant Plus™. […] The studies were conducted as double-blind paired comparisons, with treatment assignments randomized. Subjects first completed a four-day washout phase. During the four-week application phase, test products were applied twice daily to the volar surface of the forearms, using dropper bottles to deliver 0.1 ml of test product to each site; each subject applied a test formulation to one site and the vehicle formulation to the adjacent site. After four weeks of application, samples of stratum corneum were obtained by tape stripping. A subset of subjects who responded to the treatments as expected, with a significant increase in ceramide levels, data from subjects showing increased ceramides was broken out. In each case, responder subjects represented a cross-section of the whole panel; they were not predominantly of one sex or age group. […] Increases were seen across all ceramide types. The increases for ceramides 1 and 2 were dramatically higher than for the other ceramide types.

Row | Compound | skin penetration (skin layers reached) [1] | mean increase in ceramide levels compared with vehicle [2]
1 | NCCCC[C@H](N)C(=O)O [lysine] | penetrate not only into the stratum corneum but also deeper into the epidermis and dermis | 
2 | tetraacetyl phytosphingosine [TAPS] |  | 30% and 25%
